The values below come from ChEMBL document CHEMBL1201862, “PubChem BioAssay data set” (2004).

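Protocol summary: plate cells (96-well), add compound at 5 concentrations, incubate 48 h, interpolate endpoints linearly. Abbreviation: GI50, concentration required for 50% inhibition of growth.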 Active and inactive are the calls of the source. No stated cut-off is given here; in the data, active = GI50 up to about 1.1 µM and inactive = higher.

Test systems include A549; HCT-116; T47D; MDA-MB-231; UACC-257; RPMI-8226; LOX IMVI; COLO 205; SK-OV-3; MCF7; M14; U-251; EKVX; PC-3; A498; RXF 393; SF-539.
Holding throughout (assay): NCI anticancer screen, dose series, 48 h

In the case of `Cc1cc(=O)oc2cc(OCC(O)COC(C)C)ccc12` (stereo not drawn), the GI50 in the assay with A549, in the assay with HCT-116, in the assay with T47D, in the assay with MDA-MB-231, in the assay on UACC-257 and with RPMI-8226 was > 100 µM (inactive) in each case. Also, the GI50 in the assay with LOX IMVI is 88.3 µM (inactive); with COLO 205, > 100 µM (inactive); in the assay with SK-OV-3, > 100 µM (inactive); in the assay on MCF7, > 100 µM (inactive); with M14, > 100 µM (inactive); with U-251, > 100 µM (inactive). Also, the GI50 with EKVX and with PC-3 was > 100 µM (inactive) each time.

On to `CC(=O)O[C@H]1CC[C@H]2[C@@H]3CC[C@H]4Nc5c(cnn5S(C)(=O)=O)C[C@]4(C)[C@H]3CC[C@]12C`, for which the GI50 with A498 is > 100 µM (inactive); with RXF 393, > 100 µM (inactive); with HCT-116, 46.8 µM (inactive); in the assay on T47D it was 37 µM (inactive); in the assay with MDA-MB-231, > 100 µM (inactive); in the assay with RPMI-8226, > 100 µM (inactive). The GI50 in the assay with COLO 205 is > 100 µM (inactive); with SK-OV-3 it was 77.6 µM (inactive); with MCF7 it was 28.6 µM (inactive); in the assay on M14 it was 91.4 µM (inactive); in the assay on U-251, 53.1 µM (inactive); in the assay on PC-3, 64.4 µM (inactive).

With `COC(=O)Nc1nc2cc(C(=O)c3ccc[nH]3)ccc2[nH]1`, the GI50 with A498 was 3.04 µM (inactive); in the assay on RXF 393 it was 0.0895 µM (active); in the assay with HCT-116, 0.267 µM (active); in the assay on T47D, 0.959 µM (active); in the assay on MDA-MB-231, 20.6 µM (inactive); in the assay with RPMI-8226, 0.49 µM (active). Besides, the GI50 was 0.462 µM (active) in the assay with LOX IMVI; 0.342 µM (active) in the assay with COLO 205; 2.03 µM (inactive) in the assay with SK-OV-3; 0.341 µM (active) in the assay on MCF7; 0.571 µM (active) in the assay with M14; 0.721 µM (active) in the assay on U-251. The results for the GI50 with SF-539 and in the assay with PC-3 were 2.4 µM (inactive) and 0.348 µM (active), respectively.

Regarding `O=S1(=O)C[C@@H](NCc2ccccc2)[C@H](NCc2ccccc2)C1`, the GI50 in the assay on A549, in the assay on RXF 393, in the assay with HCT-116, in the assay with T47D, in the assay on MDA-MB-231 and in the assay with UACC-257 was > 100 µM (inactive) in each case. For the same compound, the GI50 with RPMI-8226 was > 100 µM (inactive); with LOX IMVI, > 100 µM (inactive); with COLO 205, > 100 µM (inactive); in the assay on SK-OV-3, > 100 µM (inactive); with MCF7, > 100 µM (inactive); in the assay on M14, 53.5 µM (inactive). In addition, the GI50 with U-251, in the assay with EKVX, in the assay with SF-539 and in the assay with PC-3 was > 100 µM (inactive) throughout.

Take `CN1C2CCC1C(CO)C(=O)C2` (stereo not drawn): the GI50 in the assay with A498 was > 100 µM (inactive); in the assay on RXF 393 it was 57.4 µM (inactive); with T47D, 21 µM (inactive); in the assay on MDA-MB-231, > 100 µM (inactive); in the assay with UACC-257, 85.1 µM (inactive); with RPMI-8226 it was 21.3 µM (inactive). For the same compound, the GI50 with LOX IMVI is > 100 µM (inactive); in the assay on COLO 205, 17.6 µM (inactive); with SK-OV-3, > 100 µM (inactive); with MCF7, 22.6 µM (inactive); with U-251, > 100 µM (inactive); in the assay with SF-539, 23.2 µM (inactive). Further, the GI50 with PC-3 is > 100 µM (inactive).

`CN1C2CC(=O)CC1[C@H](O)[C@@H]2O`: the GI50 with RXF 393, in the assay with HCT-116, in the assay on T47D, with MDA-MB-231, in the assay on UACC-257 and with RPMI-8226 was > 100 µM (inactive) throughout. Moreover, the GI50 in the assay on LOX IMVI, in the assay with COLO 205, in the assay on MCF7, in the assay with M14, in the assay on U-251 and in the assay on EKVX was > 100 µM (inactive) throughout. Further, the GI50 in the assay with PC-3 was > 100 µM (inactive).

As for `CCOC(=O)C(=NN(C)c1ncccc1N)C(=O)OCC`, the GI50 is 39.8 µM (inactive) in the assay with A498; > 100 µM (inactive) in the assay with A549; 84.9 µM (inactive) in the assay with RXF 393; 26.4 µM (inactive) with HCT-116; 25.9 µM (inactive) in the assay on T47D; 25.6 µM (inactive) with MDA-MB-231. In addition, the GI50 was 24.4 µM (inactive) with UACC-257; 30.3 µM (inactive) with RPMI-8226; 18.3 µM (inactive) in the assay on LOX IMVI; 14.4 µM (inactive) in the assay with COLO 205; > 100 µM (inactive) in the assay with SK-OV-3; 20.5 µM (inactive) in the assay on MCF7. The GI50 in the assay with M14 is 32.5 µM (inactive); in the assay with U-251, > 100 µM (inactive); in the assay on SF-539, 22.9 µM (inactive); with PC-3, 62.5 µM (inactive).

`Cc1ccc(C)c(NC(=O)/C(=N\N)C(c2cnc3ccc([N+](=O)[O-])cc3n2)[N+](=O)[O-])c1` (stereo not drawn): the GI50 is 83.2 µM (inactive) with A498; 92.7 µM (inactive) in the assay with A549; > 100 µM (inactive) in the assay on RXF 393; > 100 µM (inactive) in the assay on HCT-116; 87.7 µM (inactive) with T47D; 37.8 µM (inactive) with MDA-MB-231. The GI50 is > 100 µM (inactive) in the assay with UACC-257; 45.9 µM (inactive) in the assay on RPMI-8226; 56.4 µM (inactive) with LOX IMVI; 67.5 µM (inactive) in the assay on SK-OV-3; 60.8 µM (inactive) in the assay on MCF7; > 100 µM (inactive) in the assay on M14. Moreover, the GI50 in the assay on U-251 is > 100 µM (inactive); in the assay with EKVX, 43.3 µM (inactive); in the assay on SF-539 it was > 100 µM (inactive); in the assay with PC-3, 50.7 µM (inactive).

For the compound `CC/C=C/C(CC)C/C(C)=C\[C@]1(CC)C[C@H](CC)[C@H](CC(=O)O)OO1` (stereo partly drawn), the GI50 in the assay on A498 was 1.53 µM (inactive); in the assay with A549, 0.121 µM (active); in the assay with HCT-116, 0.41 µM (active); in the assay with T47D it was 1.34 µM (inactive); in the assay on MDA-MB-231 it was 1.76 µM (inactive); in the assay on UACC-257, 3.42 µM (inactive). Moreover, the GI50 with RPMI-8226 is < 0.01 µM (active); in the assay with LOX IMVI it was 0.0315 µM (active); in the assay with COLO 205, 1.32 µM (inactive); in the assay on SK-OV-3 it was 1.9 µM (inactive); with MCF7 it was 1.77 µM (inactive); in the assay on M14, 1.64 µM (inactive). Also, the GI50 with U-251 was 0.491 µM (active); in the assay with SF-539, 1.51 µM (inactive); in the assay on PC-3, 0.366 µM (active).

Take `Cc1nc2c(cc1C(=O)N/N=C/c1ccc([N+](=O)[O-])cc1)c(=O)n(C)c(=O)n2C`: the GI50 in the assay on A549 was > 100 µM (inactive); in the assay with RXF 393, 18.6 µM (inactive); in the assay with HCT-116, 56.4 µM (inactive); with T47D, 80.4 µM (inactive); with MDA-MB-231, 22.1 µM (inactive); in the assay with UACC-257, > 100 µM (inactive). Moreover, the GI50 in the assay on RPMI-8226 is 96.6 µM (inactive); in the assay on COLO 205, > 100 µM (inactive); in the assay with SK-OV-3, 39.4 µM (inactive); in the assay with MCF7, > 100 µM (inactive); with M14 it was > 100 µM (inactive); with U-251 it was 19.2 µM (inactive). In addition, the GI50 in the assay on EKVX is 91.2 µM (inactive); in the assay with PC-3 it was > 100 µM (inactive).
